US11839214B2, “Fungicidal mixture comprising substituted pyridines” (BASF SE, priority 2017, dated 2023)
Read-outs that look alike come from different tables or passages of the source.

Key:
Format in all cases: cell-based
Botrytis cinerea = assay: Activity against the grey mold Botrytis cinerea in the microtiterplate test
Septoria tritici = assay: Activity against leaf blotch on wheat caused by Septoria tritici (microtiterplate test)
Pyricularia oryzae = assay: microbe, parasite or virus in culture; details: for Observed efficacy: single active compound
Sclerotinia sclerotiorum = assay: Activity against Sclerotinia sclerotiorum in the microtiterplate test; details: Sclerotinia sclerotiorum, 168 h; single active compound, 0.25 ppm; read-out: Observed efficacy
[1] = Zymoseptoria tritici, 168 h, single active, 4 ppm, read-out: Observed efficacy
[2] = Pyricularia oryzae, 168 h, read-out: Observed efficacy
[3] = Botrytis cinerea, 168 h, single active compound, 1 ppm, read-out: Observed efficacy
[4] = Botrytis cinerea, 168 h, single active compound, 4 ppm, read-out: Observed efficacy
[5] = Zymoseptoria tritici, 168 h, single active, 0.25 ppm, read-out: Observed efficacy
[6] = Zymoseptoria tritici, 168 h, single active, 1 ppm, read-out: Observed efficacy
[7] = single active compound, 0.25 ppm
[8] = Zymoseptoria tritici, 168 h, read-out: Observed efficacy
[9] = Botrytis cinerea, 168 h, read-out: Observed efficacy

Compound: C=CCOC1=NS(=O)(=O)c2ccccc21 [Probenazol, probenazole]
- inhibition of growth at 63 ppm (Botrytis cinerea; Botrytis cinerea, 168 h, single active compound, 63 ppm, read-out: Observed efficacy): 22%
- inhibition of growth at 4 ppm (Septoria tritici; [1]): 4%
- inhibition of growth at 4 ppm (Pyricularia oryzae; [2]): 2%
- inhibition of growth at 16 ppm (Pyricularia oryzae; [2]): 12%

Compound: COc1cc(C2=NC(C)(C)C(F)(F)c3ccccc32)cnc1C(F)F [Compound 1-4]
- inhibition of growth at 1 ppm (Botrytis cinerea; [3]): 12%
- inhibition of growth at 4 ppm (Botrytis cinerea; [4]): 21%
- inhibition of growth at 16 ppm (Botrytis cinerea; Botrytis cinerea, 168 h, single active compound, 16 ppm, read-out: Observed efficacy): 41%
- inhibition of growth at 0.25 ppm (Septoria tritici; [5]): 7%
- inhibition of growth at 1 ppm (Septoria tritici; [6]): 8%
- inhibition of growth at 4 ppm (Septoria tritici; [1]): 1%
- inhibition of growth at 16 ppm (Septoria tritici; Zymoseptoria tritici, 168 h, single active, 16 ppm, read-out: Observed efficacy): 17%
- inhibition of growth at 0.063 ppm (Pyricularia oryzae; [2]): 18%
- inhibition of growth at 0.25 ppm (Pyricularia oryzae; [2]): 23%
- inhibition of growth at 1 ppm (Pyricularia oryzae; [2]): 29%
- inhibition of growth at 4 ppm (Pyricularia oryzae; [2]): 42%

Compound: COc1ccnc(C(=O)N[C@@H](C)C(=O)O[C@@H](C)C(c2ccc(F)cc2)c2ccc(F)cc2)c1OC(C)=O [Florylpicoxamid, florylpicoxamid]
- Observed efficacy (Botrytis cinerea; [7]): 2%
- Observed efficacy (Botrytis cinerea; single active compound, 1 ppm): 12%
- Observed efficacy (Septoria tritici; single active, 0.063 ppm): 54%
- Observed efficacy (Septoria tritici; single active, 0.25 ppm): 79%
- Observed efficacy (Pyricularia oryzae; 0.016 ppm): 49%

Compound: CC#Cc1cc(C)nc(Nc2ccccc2)n1 [Mepanipyrim, mepanipyrim]
- inhibition of growth at 1 ppm (Botrytis cinerea; [3]): 63%
- inhibition of growth at 4 ppm (Botrytis cinerea; [4]): 72%
- inhibition of growth at 0.25 ppm (Pyricularia oryzae; [2]): 3%
- inhibition of growth at 1 ppm (Pyricularia oryzae; [2]): 45%
- inhibition of growth at 4 ppm (Pyricularia oryzae; [2]): 64%

Compound: Cc1nc2c(F)c(F)ccc2cc1Oc1cccc(F)c1C(C)(C)O [drawing 43]
- inhibition of growth at 1 ppm (Septoria tritici; [8]): 45%

Compound: O=C(Nc1ccccc1-c1ccc(Cl)cc1)c1cccnc1Cl [Boscalid, boscalid]
- inhibition of growth at 1 ppm (Botrytis cinerea; [3]): 63%
- inhibition of growth at 1 ppm (Septoria tritici; [6]): 58%
- inhibition of growth at 0.25 ppm (Pyricularia oryzae; [2]): 2%
- inhibition of growth at 4 ppm (Pyricularia oryzae; [2]): 10%

Compound: Mancozeb
- Observed efficacy (Septoria tritici; single active, 1 ppm): 16%

Compound: Cc1nc2c(F)c(F)ccc2cc1Oc1cccc(F)c1C(C)(C)O [drawing 29]
- inhibition of growth at 4 ppm (Pyricularia oryzae; [2]): 50%

Compound: C=CCOC(Cn1ccnc1)c1ccc(Cl)cc1Cl (stereo not drawn) [Imazalil, imazalil]
- inhibition of growth at 1 ppm (Botrytis cinerea; [3]): 54%
- inhibition of growth at 1 ppm (Pyricularia oryzae; [2]): 20%

Compound: CON(C(=O)c1cn(C)nc1C(F)F)C(C)Cc1c(Cl)cc(Cl)cc1Cl (stereo not drawn) [Pydiflumetofen, pydiflumetofen]
- Observed efficacy (Pyricularia oryzae; 1 ppm): 44%

Compound: FC(F)C(F)(F)OCC(Cn1cncn1)c1ccc(Cl)cc1Cl (stereo not drawn) [Tetraconazol, tetraconazole]
- inhibition of growth at 0.063 ppm (Botrytis cinerea; Botrytis cinerea, 168 h, single active compound, 0.063 ppm, read-out: Observed efficacy): 5%
- inhibition of growth at 0.004 ppm (Septoria tritici; Zymoseptoria tritici, 168 h, single active, 0.004 ppm, read-out: Observed efficacy): 6%
- inhibition of growth at 0.063 ppm (Septoria tritici; Zymoseptoria tritici, 168 h, single active, 0.063 ppm, read-out: Observed efficacy): 12%
- inhibition of growth at 0.063 ppm (Pyricularia oryzae; [2]): 7%

Compound: CC(C)c1ccc(Cl)cc1CN(C(=O)c1c(C(F)F)nn(C)c1F)C1CC1 [Isoflucypram, isoflucypram]
- Observed efficacy (Botrytis cinerea; [7]): 59%
- Observed efficacy (Septoria tritici; single active, 0.063 ppm): 72%
- Observed efficacy (Pyricularia oryzae; 1 ppm): 14%

Compound: inpyrfluxam
- Observed efficacy (Botrytis cinerea; [7]): 44%
- Observed efficacy (Septoria tritici; single active, 0.25 ppm): 22%

Compound: O=C(NCCc1ncc(C(F)(F)F)cc1Cl)c1ccccc1C(F)(F)F [Fluopyram, fluopyram]
- inhibition of growth at 0.25 ppm (Septoria tritici; [5]): 23%
- inhibition of growth at 0.25 ppm (Pyricularia oryzae; [2]): 7%

Compound: O=C1CCc2cccc3c2N1CC3 [Pyroquilon, pyroquilon]
- inhibition of growth at 1 ppm (Botrytis cinerea; [9]): 2%
- inhibition of growth at 1 ppm (Pyricularia oryzae; [2]): 7%

Compound: O=[N+]([O-])c1cc(C(F)(F)F)c(Cl)c([N+](=O)[O-])c1Nc1ncc(C(F)(F)F)cc1Cl [Fluazinam, fluazinam]
- inhibition of growth at 0.25 ppm (Sclerotinia sclerotiorum): 58%
- inhibition of growth at 0.063 ppm (Pyricularia oryzae; [2]): 6%

Compound: CNC(=O)/C(=N/OC)c1ccccc1COc1cc(C)ccc1C [Dimoxystrobin, dimoxystrobin]
- Observed efficacy (Botrytis cinerea; single active compound, 0.063 ppm): 0%
- Observed efficacy (Botrytis cinerea; [7]): 12%
- Observed efficacy (Septoria tritici; single active, 0.016 ppm): 2%
- Observed efficacy (Septoria tritici; single active, 0.063 ppm): 27%

Compound: prohexadione-calcium [Prohexadion-ca]
- Observed efficacy (Septoria tritici; single active, 63 ppm): 12%
- Observed efficacy (Pyricularia oryzae; 63 ppm): 8%

Compound: Cc1nc(C(F)(F)F)c(C(=O)Nc2c(Br)cc(OC(F)(F)F)cc2Br)s1 [Thifluzamid, thifluzamide]
- inhibition of growth at 4 ppm (Botrytis cinerea; [9]): 37%
- inhibition of growth at 4 ppm (Septoria tritici; [8]): 69%
- inhibition of growth at 1 ppm (Pyricularia oryzae; [2]): 2%
- inhibition of growth at 4 ppm (Pyricularia oryzae; [2]): 16%

Compound: Cc1ccc(C(=O)OCc2ccc(Oc3ccccc3)cc2)c(N)n1 [Aminopyrifen, aminopyrifen]
- Observed efficacy (Pyricularia oryzae; 0.001 ppm): 0%
- Observed efficacy (Pyricularia oryzae; 0.004 ppm): 6%
- Observed efficacy (Pyricularia oryzae; 0.016 ppm): 36%

Compound: Cc1cccc(-n2nnn(C)c2=O)c1COc1ccn(-c2ccc(Cl)cc2)n1 [Methyltetraprol, metyltetrapole]
- Observed efficacy (Septoria tritici; single active, 0.004 ppm): 5%
- Observed efficacy (Septoria tritici; single active, 0.016 ppm): 22%
- Observed efficacy (Pyricularia oryzae; 0.016 ppm): 24%
